According to patent US6407097B1, “Methoximinomethyloxathiazines” (Bayer Aktiengesellschaft, priority 1998, dated 2002):

Tested on: not listed separately
Test: logP by HPLC (EEC directive 79/831 Annex V. A8, gradient method)
Type: physicochemical
Details: starting materials/intermediates, read-out: HPLC: log P

Point of comparison: CON=C(C1=NOCCS1)c1ccccc1Oc1ncnc(F)c1F [IV-1, [2-(5,6-difluoro-pyrimidine-4-yloxy)-phenyl]-(5,6-dihydro-[1,4,2]oxathiazin-3-yl)-methanone O-methyloxime], chromatographic logP 2.8. Against it:
- CON=C1C(=NOCCSC(C)=O)Oc2ccccc21 (single isomer, unassigned) [VI-1 Isomer A, S-[2-(3-methoxyimino-3H-benzofuran-2-ylideneaminooxy)-ethyl]thioacetate] — higher, 3.01
- CON=C1C(=NOCCBr)Oc2ccccc21 (single isomer, unassigned) [VII-1 Isomer A, benzofuran-2,3-dione 2-[O-(2-bromoethyl)-oxime] 3-(O-methyloxime)] — higher, 3.08
- CON=C(C1=NOCCS1)c1ccccc1O [II-1, (5,6-dihydro-[1,4,2]oxathiazin-3-yl)-(2-hydroxyphenyl)-methanone O-methyloxime] — lower, 1.75
- CON=C1C(=NOCCSC(C)=O)Oc2ccccc21 (single isomer, unassigned) [VI-1 Isomer B, S-[2-(3-methoxyimino-3H-benzofuran-2-ylideneaminooxy)-ethyl]thioacetate] — higher, 3.18
- CON=C1C(=NOCCBr)Oc2ccccc21 (single isomer, unassigned) [VII-1 Isomer B, benzofuran-2,3-dione 2-[O-(2-bromoethyl)-oxime] 3-(O-methyloxime)] — higher, 3.23

Tested on: Sphaerotheca fuliginea
Test: Sphaerotheca test (cucumber)/protective
Type: in vivo
Details: protective, application rate 100 g/ha, evaluation 10 days after inoculation
Procedure: Sphaerotheca test (cucumber)/protective Solvent: 47 parts by weight of acetone Emulsifier: 3 parts by weight of alkylaryl polyglycol ether To produce a suitable preparation of active compound, 1 part by weight of active compound is mixed with the stated amounts of solvent and emulsifier, and the concentrate is diluted with water to the desired concentration. To test for protective activity, young plants are sprayed with the preparation of active compound at the stated application rate. After the spray coating has dried on, the plants are inoculated with an aqueous spore suspension of Sphaerotheca fuliginea. The plants are then placed in a greenhouse at approximately 23° C. and a relative atmospheric humidity of approximately 70%. Evaluation is carried out 10 days after the inoculation. 0% means an efficacy which corresponds to that of the control, whereas an efficacy of 100% means that no infection is observed.

For CON=C(C1=NOCCS1)c1ccccc1Oc1ncnc(Oc2ccccc2)c1F [Example 1, (5,6-dihydro-[1,4,2]-oxathiazin-3-yl)-2-[(5-fluoro-6-phenoxy-pyrimidine-4-yloxy)-phenyl]-methanone O-methyloxime], the efficacy was at least 90%.
